The source of these data is patent publication US12448371B2, “Inhibitor compounds” (Cincera Therapeutics Pty Ltd, priority 2019, dated 2025).

One may read the IC50 as the concentration at which inhibition is half-maximal. Usually inhibition stands for how much of the control response was suppressed. A lower inhibition goes with a weak effect.

Structures are written as SMILES. Structures can show the parent of a compound that is named as a salt.

The target of one assay is T1, Des1 (h) (Homo sapiens, UniProt O15121).
T1 construct: endogenous in cells; host or cells: parental Jurkat cells
T1 sequence (O15121 1-323): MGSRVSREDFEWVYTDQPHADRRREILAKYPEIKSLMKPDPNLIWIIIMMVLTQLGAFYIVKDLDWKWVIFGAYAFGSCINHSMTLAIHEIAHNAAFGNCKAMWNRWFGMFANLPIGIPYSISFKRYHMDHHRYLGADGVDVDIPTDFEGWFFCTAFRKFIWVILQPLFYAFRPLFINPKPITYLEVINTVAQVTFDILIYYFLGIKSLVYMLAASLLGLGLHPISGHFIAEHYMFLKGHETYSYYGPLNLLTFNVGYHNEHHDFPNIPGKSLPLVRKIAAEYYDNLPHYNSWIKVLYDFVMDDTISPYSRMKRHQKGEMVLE
The assay is described as follows: Measurement of Dihydroceramide Desaturase-1 (Des-1) activity in intact Jurkat cells labeled with DhCer-C6-NBD (HPLC). It counts as cell-based. Conditions: for IC50: intact Jurkat cells, given as concentration range, or <X / >X if measured at one concentration X only, read-out: Des1 (h) Jurkat IC50. The method in brief: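 Intact parental Jurkat cells in 0.5% serum medium were labelled with DhCer-C6-NBD; cells harvested at 500×g and ceramides extracted. NBD-labelled substrate and product resolved by C18 reverse-phase HPLC and quantified by fluorescence (ex 465/em 530 nm) as a measure of Des-1 activity.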

Assay [1] has as its system Connective Tissue Growth Factor (CTGF) gene expression. The assay is described as follows: Real time quantitative PCR in TGFβ-stimulated human hepatic stellate cells (LX2) to detect CTGF gene expression. The format is cell-based. Conditions: CTGF mRNA in TGFβ-stimulated LX2 cells vs vehicle control; for inhibition at 5 µM: LX-2, 5 μM; for inhibition at 1 µM: LX-2, 1 μM; for inhibition at 10 µM: LX-2, 10 μM. How it is done:
Real Time Quantitative Polymerase Chain Reaction in Human Hepatic Stellate Cells (LX2) to Detect Connective Tissue Growth Factor (CTGF) Gene Expression The hepatic stellate cell line, LX2 was maintained in DMEM (LifeTechnologies) with 2% heat-inactivated FBS, 100U penicillin (LifeTechnologies), 0.1 mg/mL streptomycin (LifeTechnologies), and 2 mM L-glutamine (LifeTechnologies) at 37° C. with 5% CO2. Cells were seeded into 6-well plates (200,000 cells per well, 2 mLs media) and grown overnight. The cells were changed to 2 mLs 0.5% FBS media for 24 hours prior to treatment. Treatments were added in 2 mLs fresh 0.5% FBS media (vehicle control, long/mL TGFβ alone (R&D Systems), 10 ng/mL TGFβ+inhibitors) and incubated for 24 hours. […] RNA was extracted using Qiagen RNeasy kit (cat #74104), according to manufacturer's instructions. RNA (1 μg) was used to generate cDNA using the Qiagen Quantitect Reverse Transcription Kit (cat #205311), and stored at -20° C. cDNA was diluted (1:25 final) and combined with Sybr Green (Qiagen cat #204143), forward and reverse primers (50 ng each) and run on Real Time PCR Thermocycler machine (RG-6000, Corbett) with the following PCR conditions: Hold 1: 50° C. for 2 min; Hold 2: 95° C. for 15 min; Cycling: 45 cycles of: 95° C. for 30 sec, 58° C. for 21 sec, 72° C. for 15 sec, Hold 3: 72° C. for 30 sec, Melt: 72° C. to 99° C. GAPDH primers (Forward: [NT]; Reverse: [NT] primers (Forward: [NT]; Reverse: [NT] primers available from Origene, cat #HP205671)].

On to `O=C(NCC(O)CO)c1ccc(Nc2ncc(-c3ccc(Cl)cn3)o2)cn1` (racemic) [Compound 116, rac-5-((5-(5-Chloropyridin-2-yl)oxazol-2-yl)amino)-N-(2,3-dihydroxypropyl)picolinamide hydrochloride], for which, on Des1 (h), the IC50 was under 1 µM. The same molecule returned an inhibition at 5 µM in assay [1] of 70 to 80%.
On to `N/C(=N\O)c1cnc(Nc2ncc(-c3ccc(C(F)(F)F)cn3)o2)cn1` [Example 57, N′-Hydroxy-5-((5-(5-(trifluoromethyl)pyridin-2-yl)oxazol-2-yl)amino)pyrazine-2-carboximidamide], for which the IC50 at Des1 (h) is under 1 µM. In assay [1], this molecule returned an inhibition at 1 µM of 1 to 10% and an inhibition at 10 µM of 50 to 60%.
In the case of `N/C(=N\O)c1ccc(Nc2nc(-c3ccc(OC(F)(F)F)cc3)no2)cn1` [Example 86, N′-Hydroxy-5-((3-(4-(trifluoromethoxy)phenyl)-1,2,4-oxadiazol-5-yl)amino)picolinimidamide], the IC50 on Des1 (h) is under 1 µM. In assay [1], this molecule registered an inhibition at 5 µM of over 90%.
With `CN(O)C(=O)c1ccc(Nc2ncc(-c3ccc(C(F)(F)F)cc3)o2)cn1` [Example 20, N-Nydroxy-N-methyl-5-((5-(4-(trifluoromethyl)phenyl)oxazol-2-yl)amino)picolinamide], on Des1 (h), the IC50 was under 0.1 µM. In assay [1], this molecule displayed an inhibition at 1 µM of 10 to 20% and an inhibition at 10 µM of 70 to 80%.
Consider `N/C(=N\O)c1cnc(Nc2ccn(-c3ccc(C(F)(F)F)cc3)n2)cn1` [Compound 111, N′-Hydroxy-5-((1-(4-(trifluoromethyl)phenyl)-1H-pyrazol-3-yl)amino)pyrazine-2-carboximidamide], for which the IC50 at Des1 (h) is under 1 µM. Further, the inhibition at 5 µM in assay [1] is over 90%.
In the case of `N/C(=N\O)c1cnc(Nc2ncn(-c3ccc(C(F)(F)F)cn3)n2)cn1` [Compound 108, N′-Hydroxy-5-((1-(5-(trifluoromethyl)pyridin-2-yl)-1H-1,2,4-triazol-3-yl)amino)pyrazine-2-carboximidamide], the IC50 on Des1 (h) is under 1 µM. In assay [1], this molecule gave an inhibition at 5 µM of 40 to 50%.
`N/C(=N\O)c1cnc(Nc2ncn(-c3ccc(C(F)(F)F)cc3)n2)cn1` [Compound 106, N′-Hydroxy-5-((1-(4-(trifluoromethyl)phenyl)-1H-1,2,4-triazol-3-yl)amino)pyrazine-2-carboximidamide]: the IC50 on Des1 (h) is under 1 µM. In assay [1], this molecule displayed an inhibition at 1 µM of 30 to 40%.
As for `N/C(=N\O)c1ccc(Nc2cnn(-c3ccc(C(F)(F)F)cn3)c2)cn1` [Example 72, N′-Hydroxy-5-((1-(5-(trifluoromethyl)pyridin-2-yl)-1H-pyrazol-4-yl)amino)picolinimidamide], the IC50 at Des1 (h) was under 1 µM. In assay [1], this molecule registered an inhibition at 1 µM of 40 to 50% and an inhibition at 5 µM of 50 to 60%.
With `N/C(=N\O)c1cnc(Nc2ncc(-c3ccc(C(F)(F)F)cc3)o2)cn1` [Example 54, N′-Hydroxy-5-((5-(4-(trifluoromethyl)phenyl)oxazol-2-yl)amino)pyrazine-2-carboximidamide], the IC50 on Des1 (h) lay in the range of 0.1 to 1 µM. In assay [1], the inhibition at 1 µM lay within 70 to 80% and the inhibition at 10 µM fell in the range of 80 to 90%.
As to `N/C(=N\O)c1ccc(Nc2ccn(-c3ccc(C(F)(F)F)cn3)n2)cn1` [Example 73, N′-Hydroxy-5-((1-(5-(trifluoromethyl)pyridin-2-yl)-1H-pyrazol-3-yl)amino)picolinimidamide], at Des1 (h), the IC50 was under 1 µM. The molecule further registered an inhibition at 5 µM in assay [1] of over 90%.
Consider `N/C(=N\O)c1ncc(Nc2ncc(-c3ccc(C(F)(F)F)cc3)o2)cn1` [Example 55, N′-Hydroxy-5-((5-(4-(trifluoromethyl)phenyl)oxazol-2-yl)amino)pyrimidine-2-carboximidamide], for which, at Des1 (h), the IC50 is under 1 µM. In assay [1], this molecule returned an inhibition at 1 µM of 20 to 30% and an inhibition at 10 µM of 40 to 50%.
With `N/C(=N/O)c1ccc(Nc2cn(-c3ccc(C(F)(F)F)cn3)nn2)cn1` [Compound 115, N′-Hydroxy-5-((1-(5-(trifluoromethyl)pyridin-2-yl)-1H-1,2,3-triazol-4-yl)amino)picolinimidamide], the IC50 on Des1 (h) is under 1 µM. In assay [1], the inhibition at 5 µM is over 90%.
In the case of `N/C(=N\O)c1ccc(Nc2ccn(-c3ccc(C(F)(F)F)cc3)n2)cn1` [Example 74, N′-Hydroxy-5-((1-(4-(trifluoromethyl)phenyl)-1H-pyrazol-3-yl)amino)picolinimidamide], the IC50 at Des1 (h) was under 1 µM. The molecule also came in with an inhibition at 5 µM in assay [1] of 80 to 90%.
For `N/C(=N\O)c1ccc(Nc2ncc(-c3ccc(C4CC4)cc3)o2)cn1` [Compound 120, 5-((5-(4-Cyclopropylphenyl)oxazol-2-yl)amino)-N′-hydroxypicolinimidamide], the inhibition at 1 µM is 10% at Des1 (h) (Jurkat cells, 1 μM) and 40 to 50% in assay [1]. The IC50 on Des1 (h) was over 1 µM. For the same molecule, the inhibition at 10 µM in assay [1] lay within 40 to 50%.
For `O=CNNC(=O)c1ccc(Nc2ncc(-c3ccc(C(F)(F)F)cc3)o2)cn1` [Compound 93, N′-formyl-5-((5-(4-(trifluoromethyl)phenyl)oxazol-2-yl)amino)picolinohydrazide], the IC50 at Des1 (h) was under 1 µM.
As for `N/C(=N\O)c1ccc(Nc2ncc(-c3ccc(Cl)cc3)o2)cn1` [Compound 100, 5-((5-(4-Chlorophenyl)oxazol-2-yl)amino)-N′-hydroxypicolinimidamide], at Des1 (h), the IC50 is under 1 µM.
`N/C(=N\O)c1ncc(Nc2ncc(-c3ccc(C(F)(F)F)c(F)c3)o2)cc1O` [Example 43, 5-((5-(3-Fluoro-4-(trifluoromethyl)phenyl)oxazol-2-yl)amino)-N′,3-dihydroxypicolinimidamide]: the IC50 at Des1 (h) was in the range of 0.001 to 0.01 µM.
In the case of `O=C(NC[C@H](O)CO)c1ccc(Nc2ncc(-c3ccc(C(F)(F)F)cc3)o2)cn1` [Example 37, (S)—N-(2,3-Dihydroxypropyl)-5-((5-(4-(trifluoromethyl)phenyl)oxazol-2-yl)amino)picolinamide], the “% inhibition of Des1 at 1 μM” value at Des1 (h) (Jurkat cells, 1 μM) is listed as “no inhibition”. In addition, the 50% inhibitory concentration (IC50) at Des1 (h) is over 1 µM.
Take `O=C(NO)c1ncc(Nc2nc(-c3ccc(C(F)(F)F)cc3)co2)cn1` [Example 12, N-Hydroxy-5-((4-[4-(trifluoromethyl)phenyl]-1,3-oxazol-2-yl)amino)pyrimidine-2-carboxamide]: the IC50 at Des1 (h) lay within 1 to 10 µM.
Turning to `Oc1ccc(Nc2nnc(-c3ccc(OC(F)(F)F)cc3)o2)nc1` [Example 67, 6-((5-(4-(Trifluoromethoxy)phenyl)-1,3,4-oxadiazol-2-yl)amino)pyridin-3-ol], the IC50 on Des1 (h) was under 1 µM.
Take `N/C(=N/O)c1ccc(Nc2ncc(-c3ncc(C(F)(F)F)cn3)o2)cn1` [Example 65, N′-Hydroxy-5-((5-(5-(trifluoromethyl)pyrimidin-2-yl)oxazol-2-yl)amino)picolinimidamide]: 1 µM produced 26% inhibition on Des1 (h) (Jurkat cells, 1 μM). On Des1 (h), the IC50 is over 1 µM.
On Des1 (h) (Jurkat cells, 1 μM), `CNNC(=O)c1ccc(Nc2ncc(-c3ccc(C(F)(F)F)cc3)o2)cn1` [Compound 94, N′-Methyl-5-((5-(4-(trifluoromethyl)phenyl)oxazol-2-yl)amino)picolinohydrazide] had an inhibition at 1 µM of 30%. Also, the IC50 on Des1 (h) was over 1 µM.
With `O=C(NC[C@@H](O)CO)c1ccc(Nc2ncn(-c3ccc(C(F)(F)F)cc3)n2)cn1` [Example 38, (R)—N-(2,3-Dihydroxypropyl)-5-((1-(4-(trifluoromethyl)phenyl)-1H-1,2,4-triazol-3-yl)amino)picolinamide], the inhibition at 1 µM against Des1 (h) (Jurkat cells, 1 μM) stood at 30%. On Des1 (h), the IC50 was over 1 µM.
`N/C(=N/O)c1ccc(Nc2ncc(-c3ccc(F)cn3)o2)cn1` [Compound 117, 5-((5-(5-Fluoropyridin-2-yl)oxazol-2-yl)amino)-N′-hydroxypicolinimidamide]: the inhibition at 1 µM against Des1 (h) (Jurkat cells, 1 μM) amounted to 36%. For the same molecule, the IC50 on Des1 (h) is over 1 µM.
As for `O=C(NCCO)c1ccc(Nc2ncc(-c3ccc(C(F)(F)F)cc3)o2)cn1` [Example 19, N-(2-Hydroxyethyl)-5-((5-(4-(trifluoromethyl)phenyl)oxazol-2-yl)amino)picolinamide], the IC50 at Des1 (h) fell in the range of 1 to 10 µM.
